Values quoted from earlier work, collected in patent US20110166187A1, “METHODS OF USING SUSTAINED RELEASE AMINOPYRIDINE COMPOSITIONS” (priority 2004, published 2011).

Tested on: voltage dependent, neuronal potassium channels

## Nc1ccncc1 [fampridine, 4-aminopyridine]
  concentrations at which it appears to be a specific blocker of voltage dependent, neuronal potassium channels: 1 to 2 µM
